According to patent publication US20140135359A1, “METHODS OF DESIGNING, PREPARING, AND USING NOVEL PROTONOPHORES” (priority 2012, published 2014):

Legend:
[1] = tested on: differentiated C2C12 skeletal muscle cells; assay: 3H-deoxyglucose uptake in C2C12 myotubes; format: cell-based, murine; conditions: 18 h
Description: 2.3 ^3H-deoxyglucose uptake in C2C12 myotubes: Cell culture and the ^3H-deoxyglucose uptake assay were performed as previously described [34B, 35B, 37B]. Briefly, C2C12 murine skeletal myoblasts (American Type Culture Collection; Manassas, Va.) were cultured under standard conditions in 12-well plates. Cells were proliferated to 80% confluence in high-glucose Dulbecco's modified Eagle's medium (DMEM; Wisent; St-Bruno, QC) supplemented with 10% fetal bovine serum (FBS; Wisent), 10% horse serum (HS), and antibiotics. Differentiation into multinucleated myotubes was then promoted with DMEM supplemented with 2% HS and antibiotics. All uptake assays were performed on 7-day differentiated cells, and treatments were timed accordingly. […] DMSO concentration was fixed at 0.1% for all conditions. Cells were routinely inspected for abnormal morphology by phase-contrast microscopy at the conclusion of the treatment period. […] Cells were then washed twice in glucose-free KPB at 37° C. before incubation for exactly 10 min at 37° C. in glucose-free KPB containing 0.5 μCi/ml 2-deoxy-D-[1-^3H]glucose (Amersham Biosciences; Buckinghamshire, UK). Cells were then placed on ice and immediately washed three times with ice-cold KPB. Cells were inspected for monolayer detachment and lysed in 0.1 N NaOH with scraping. […] Three independent experiments of 18 h treatment duration were performed for each of the selected test compounds, with three replicates per condition per experiment. Vehicle-control and 50 μM 2,4-dinitrophenol conditions were included on every plate. Some compounds were also tested at 50 μM under the following conditions: a 15 h treatment with vehicle only followed by a 3 h treatment with the test compound; a 15 h treatment with the test compound followed by a 3 h repeat treatment.
Protocol for ^3H-deoxyglucose uptake assay in C2C12 or other skeletal muscle cells; C2C12 murine skeletal myoblasts (American Type Culture Collection; Manassas, Va.) may be cultured under standard conditions in 12-well plates. Cells may be proliferated to 80% confluence in high-glucose Dulbecco's modified Eagle's medium (DMEM) supplemented with 10% fetal bovine serum (FBS), 10% horse serum (HS), and antibiotics. Differentiation into multinucleated myotubes may be then promoted with DMEM supplemented with 2% HS and antibiotics. All uptake assays may be performed on 7-day differentiated cells, and treatment onset may be timed accordingly. Cells may be treated with reference substances (such as metformin (100 or 400 μM), phenformin (100 μM), or 2,4-dinitrophenol 10-100 μM), compounds described herein, or vehicle (DMSO) in complete differentiation medium. DMSO concentration may be fixed at 0.1% for all conditions. Cells may be routinely inspected for abnormal morphology by phase-contrast microscopy at the conclusion of the treatment period. […] Cells may be then washed twice in glucose-free KPB at 37° C. before incubation for exactly 10 min at 37° C. in glucose-free KPB containing 0.5 μCi/ml 2-deoxy-D-[1-3H]glucose (Amersham Biosciences; Buckinghamshire, UK). Cells may be then placed on ice and immediately washed three times with ice-cold KPB. Cells may be inspected for monolayer detachment and lysed in 0.1 N NaOH with scraping. […] Three or more independent experiments of 18 hours treatment duration may be performed for each test compound, with three or more replicates per condition per experiment. Vehicle-control and 2,4-dinitrophenol conditions may be included on every plate for the purpose of standardizing.

[2] = tested on: glucose-6-phosphatase (G6Pase) activity in H4IIE hepatocytes; assay: Glucose-6-phosphatase activity in H4IIE hepatocytes; format: cell-based, murine; conditions: 16 h; for suppression of G6Pase activity: 12.5 μM, result in words; for increase in G6Pase activity: 1 μM
Description: 2.4 Glucose-6-phosphatase activity in H4IIE hepatocytes: H4IIE murine hepatocytes (American Type Culture Collection) were cultured to confluence in 12-well plates in DMEM supplemented with 10% FBS and antibiotics. […] Effects of test compounds on cellular viability were assessed by measuring the release of lactate dehydrogenase (LDH) into the culture medium at the end of a 16 h treatment using a commercial kit (Cytotoxicity Detection Kit; Roche Diagnostics; Laval, QC) as per the manufacturer's instructions; LDH release was expressed as % of total (medium+lysate) LDH content for each well. Cells were also routinely inspected for abnormal morphology by phase-contrast microscopy at the conclusion of the treatment period. Following treatment, cells were washed in HEPES-buffered saline (10 mM HEPES, pH 7.4, 150 mM NaCl) at 37° C. Glucose-6-phosphatase (G6Pase) activity was assessed by measuring the rate of glucose formation in the presence of a non-limiting amount of glucose-6-phosphate (G6P), as done by others [39B, 40B]. Glucose production was measured with a commercial glucose assay kit (AutoKit Glucose; Wako Diagnostics; Richmond, Va.). Two hundred μl of AutoKit Glucose buffer solution diluted 1:4 in water were added to each well. Cells were then lysed by the addition of 50 μl of 0.05% Triton X-100 in similarly diluted AutoKit Glucose buffer solution. […] At 37° C., after which time 500 μl of AutoKit Glucose color reagent were added and incubation was continued for exactly 5 min. Samples were then rapidly transferred to microcentrifuge tubes. Fifty μl were removed for assay of total protein content in order to account for effects of test compounds on cellular viability or proliferation [41B]. A commercial protein assay kit based on the Bradford method was used (Protein Assay; Bio-Rad Laboratories; Hercules, Calif.). […] The remaining volume was centrifuged at 3000×g for 5 min. Absorbance of the supernatant was measured at 505 nm at ambient temperature and glucose concentration was calculated from a standard curve performed in parallel. Control wells without exogenous G6P were included on each plate for each treatment condition and activity measured from these wells was subtracted from activity measured in the presence of exogenous G6P. G6Pase activity calculated in this way was then expressed normalized to protein content on a well-by-well basis. Two independent experiments in cells of different passages were performed for each of the selected test compounds, with four to six replicates per condition per experiment.
Protocol for assay of glucose-6-phosphatase activity in H4IIE or other hepatocytes: H4IIE murine hepatocytes (American Type Culture Collection) may be cultured to confluence in 12-well plates in Dulbecco's modified Eagle's medium (DMEM) supplemented with 10% fetal bovine serum (FBS), and antibiotics. […] Effects of test compounds on cellular viability may be assessed by measuring the release of lactate dehydrogenase (LDH) into the culture medium at the end of a 16 hour treatment using a commercial kit (e.g., Cytotoxicity Detection Kit; Roche Diagnostics; Laval, QC) as per the manufacturer's instructions; LDH release may be expressed as % of total (i.e., medium+lysate) LDH content for each well. Cells may also be routinely inspected for abnormal morphology by phase-contrast microscopy at the conclusion of the treatment period. Following treatment, cells may be washed in HEPES-buffered saline (10 mM HEPES, pH 7.4, 150 mM NaCl) at 37° C. Glucose-6-phosphatase (G6Pase) activity may be assessed by measuring the rate of glucose formation in the presence of a non-limiting amount of glucose-6-phosphate (G6P). Glucose production may be measured with a commercial glucose assay kit (e.g., AutoKit Glucose; Wako Diagnostics; Richmond, Va.). Two hundred μl of AutoKit Glucose buffer solution diluted 1:4 in water may be added to each well.

[3] = tested on: isolated rat liver mitochondria; assay: Uncoupling activity: increase in basal (state 4) oxygen consumption by oxygraphy; format: biochemical; conditions: for Uncoupling (%): increase in basal (state 4) oxygen consumption as % of average ADP-stimulated (state 3) rate in vehicle-treated mitochondria; for Measured Uncoupling Activity (% uncoupling ± SEM @ 100 μM): Suppl. Table 1, 2-3 mitochondrial preparations; for Measured Uncoupling (% uncoupling ± SEM @ 100 μM): Table 1A, relative to ADP-stimulated respiration = 100%
[4] = tested on: isolated rat liver mitochondria; assay: Residual functional capacity / inhibitory effect on ADP-stimulated (state 3) oxygen consumption; format: biochemical; conditions: for Residual capacity (%): functional capacity (state 3 minus state 4 rate) as % of vehicle-treated mitochondria; for inhibitory effect on oxidative phosphorylation: 50 μM (FIG. 19)
C2C12 myotubes = assay: Morphology / monolayer detachment inspection of treated myotubes; format: cell-based, murine; conditions: 100 μM, 18 h
Description: 2.3 ^3H-deoxyglucose uptake in C2C12 myotubes: Cell culture and the ^3H-deoxyglucose uptake assay were performed as previously described [34B, 35B, 37B]. Briefly, C2C12 murine skeletal myoblasts (American Type Culture Collection; Manassas, Va.) were cultured under standard conditions in 12-well plates. Cells were proliferated to 80% confluence in high-glucose Dulbecco's modified Eagle's medium (DMEM; Wisent; St-Bruno, QC) supplemented with 10% fetal bovine serum (FBS; Wisent), 10% horse serum (HS), and antibiotics. Differentiation into multinucleated myotubes was then promoted with DMEM supplemented with 2% HS and antibiotics. All uptake assays were performed on 7-day differentiated cells, and treatments were timed accordingly. […] DMSO concentration was fixed at 0.1% for all conditions. Cells were routinely inspected for abnormal morphology by phase-contrast microscopy at the conclusion of the treatment period. […] Cells were then washed twice in glucose-free KPB at 37° C. before incubation for exactly 10 min at 37° C. in glucose-free KPB containing 0.5 μCi/ml 2-deoxy-D-[1-^3H]glucose (Amersham Biosciences; Buckinghamshire, UK). Cells were then placed on ice and immediately washed three times with ice-cold KPB. Cells were inspected for monolayer detachment and lysed in 0.1 N NaOH with scraping. […]

Compound | Uncoupling (%) ([3]; test conc. 25 μM) | Uncoupling (%) ([3]; test conc. 100 μM) | Inhibitory effect (%) ([4]; test conc. 25 μM) | Residual capacity (%) ([4]; test conc. 25 μM) | Inhibitory effect (%) ([4]; test conc. 100 μM) | Residual capacity (%) ([4]; test conc. 100 μM) | Measured Uncoupling Activity (% uncoupling ± SEM @ 100 μM) ([3]; 100 μM) [% uncoupling] | suppression of G6Pase activity [2] | further results
CN(C)C(=N)N=C(N)N [metformin] |  |  |  |  |  |  |  |  | increase in basal glucose uptake ([1]; 400 μM): 43%; suppression of G6Pase activity per mg total protein ([2]; 400 μM): 56%
[H]/N=C(/N)N/C(=N/[H])NCCc1ccccc1 [phenformin] |  |  |  |  |  |  |  |  | increase in basal glucose uptake ([1]; 100 μM): 48%
COc1cc(/C=C/C(=O)CC(=O)/C=C/c2ccc(O)c(OC)c2)ccc1O [curcumin] | 42 ± 8 | 79 ± 6 | 17 | 41 ± 9 | 21 | 0 ± 0 |  |  | indications of cytotoxicity (C2C12 myotubes): increased susceptibility to monolayer detachment
O=C(/C=C/c1ccc(O)c(O)c1)c1ccc(O)cc1O [butein] | 26 ± 4 | 71 ± 4 | 23 | 51 ± 12 | 29 | 0 ± 0 | 71 ± 4 | exceeding the effect of metformin at 400 μM | increase in basal glucose uptake ([1]; at ⅛th of metformin's concentration (400 μM)): 269%; effect on basal glucose uptake relative to metformin ([1]; metformin 400 μM): more than 6 fold; uncoupling activity ([3]; 50 μM in 0.1% DMSO (FIG. 19)): partial uncoupling; Measured Uncoupling (% uncoupling ± SEM @ 100 μM) ([3]; 100 μM): 71 ± 4 % uncoupling; inhibitory effect on oxidative phosphorylation [4]: inhibition of ADP-stimulated consumption
O=c1c(O)c(-c2ccc(O)cc2)oc2cc(O)cc(O)c12 [kaempferol] | 10 ± 1 | 25 ± 2 | 28 | 62 ± 5 | 47 | 28 ± 4 | 25 ± 2 |  | indications of cytotoxicity (C2C12 myotubes): decreased uptake relative to vehicle-control levels
C[C@@H]1C[C@H]2[C@@H]3CCC4=CC(=O)C=C[C@]4(C)[C@@]3(F)[C@@H](O)C[C@]2(C)[C@@]1(O)C(=O)CO [dexamethasone] |  |  |  |  |  |  |  |  | increase in G6Pase activity [2]: 56%; increase in G6Pase activity ([2]; listed as Dexamethasone): 56±10%
O=C(/C=C/c1ccccc1)c1ccccc1 [chalcone] |  | −6 ± 0 |  |  | 65 | 35 ± 5 | −6 ± 0 | did not suppress G6Pase activity | uncoupling activity ([3]; 50 μM in 0.1% DMSO (FIG. 19)): devoid of uncoupling activity; uncoupling activity ([3]; 100 μM, result in words): inactive; inhibitory effect on oxidative phosphorylation [4]: small inhibitory effect; inhibition of ADP-stimulated oxygen consumption ([4]; screening at 100 μM): inhibitory activity
O=C(/C=C/c1ccc(O)cc1)c1ccc(O)cc1O [isoliquiritigenin] | 24 ± 3 | 108 ± 7 | 11 | 65 ± 6 | 0 | 0 ± 0 | 108 ± 7 | exceeding the effect of metformin at 400 μM | uncoupling activity ([3]; 100 μM, result in words): complete uncoupling; Measured Uncoupling (% uncoupling ± SEM @ 100 μM) ([3]; 100 μM): >100 % uncoupling
